Where a name gives a salt, the structure may show the parent alone.
Tests used:
[1] = system: Human peripheral blood mononuclear cells (PBMC); assay: Cytokine induction in human cells (PBMC), IFN-gamma by multiplex bead assay; format: cell-based; conditions: 21-24 hrs, lowest concentration inducing cytokine at least 2× negative control, tested at 10, 1, 0.1, 0.01, 0.001, 0.0001 micromolar
Experimental: (§1) Cytokine Induction in Human Cells
(§2) Whole blood was obtained from healthy human donors and collected by venipuncture into vacutainer tubes or syringes containing EDTA. Human peripheral blood mononuclear cells (PBMC) were purified from the whole blood by density gradient centrifugation. Histopaque 1077 (15 mL, Sigma, St. Louis, Mo.) was transferred to 6×50 mL sterile polypropylene conical tubes. The Histopaque was overlayed with 15-25 mL of blood diluted 1:2 in Hank's Balanced Salts Solution (HBSS) (Gibco, Life Technology, Grand Island N.Y.). The tubes were then centrifuged at 1370 rpm for 30 minutes at 20° C., with no brake (400×g, GH 3.8A Rotor).
(§3) The interface (buffy coat) containing the PBMC was collected and placed in a new sterile 50 mL conical polypropylene centrifuge tube. […]
(§4) The number of viable cells were determined by counting with a Miltenyi FACS instrument (Miltenyi Biotec Inc., San Diego, Calif.) or by using a hemacytometer. […] Ten microliters of the diluted cells were then applied to the hemacytometer, and the number of viable PBMC were determined by microscopy. […]
(§5) IFN-alpha cytokine levels (pg/mL) were measured by ELISA (human IFN-α, pan specific, Mabtech, Cinncinnati, Ohio), IFN-gamma, TNF-alpha, and IP-10 cytokine levels (pg/mL) were measured by multiplex bead assay (magnetic beads, R & D Systems Minneapolis, Minn.) according to the manufacturer's instructions. […]

[2] = system: Human peripheral blood mononuclear cells (PBMC); assay: Cytokine induction in human cells (PBMC), IFN-alpha by ELISA; format: cell-based; conditions: 21-24 hrs, lowest concentration inducing cytokine at least 2× negative control, tested at 10, 1, 0.1, 0.01, 0.001, 0.0001 micromolar
Experimental: as §1, §2, §3, §4, §5

## N=C(N)NCCC[C@H]1COCc2nc3c(N)nc4ccccc4c3n21 [Example 1, (11S)-1-{3-[6-amino-10,11-dihydro-8H-[1,4]oxazino[4′,3′:1,2]imidazo[4,5-c]quinolin-11-yl]propyl}guanidine dihydrochloride]
[1]
  MEC to Induce Cytokine IFN-gamma: 1.0 µM
[2]
  MEC to Induce Cytokine IFN-alpha: 1.0 µM

Reference: patent US10414779B2, “Fused [1,2]imidazo[4,5-C] ring compounds substituted with guanidino groups” (3M INNOVATIVE PROPERTIES COMPANY, priority 2016, dated 2019)
